Non-standard residues stand in square brackets, D forms with d. Residues, ends and D or L forms follow the SMILES beside them. Phe(3-Cl) = N[C@@H](Cc1cccc(Cl)c1)C(=O)O; Phe(2-Cl) = N[C@@H](Cc1ccccc1Cl)C(=O)O; 1Nal = N[C@@H](Cc1cccc2ccccc12)C(=O)O; 2Nal = N[C@@H](Cc1ccc2ccccc2c1)C(=O)O; Arg(Me) = CNC(=N)NCCC[C@H](N)C(=O)O; azaGly = NNC(=O)O
Target: T1, hOT7T175 (Homo sapiens, UniProt Q969F8, L364H)
T1 construct: expressed in transfected cells
Assay: Intracellular Ca ion level-increasing activity using FLIPR (180 seconds; specific activity to Metastin (1-54))
Format: cell-based
Conditions: hOT7T175/CHO, relative to Metastin (1-54) = 1

T1 sequence (Q969F8 whole entry L364H): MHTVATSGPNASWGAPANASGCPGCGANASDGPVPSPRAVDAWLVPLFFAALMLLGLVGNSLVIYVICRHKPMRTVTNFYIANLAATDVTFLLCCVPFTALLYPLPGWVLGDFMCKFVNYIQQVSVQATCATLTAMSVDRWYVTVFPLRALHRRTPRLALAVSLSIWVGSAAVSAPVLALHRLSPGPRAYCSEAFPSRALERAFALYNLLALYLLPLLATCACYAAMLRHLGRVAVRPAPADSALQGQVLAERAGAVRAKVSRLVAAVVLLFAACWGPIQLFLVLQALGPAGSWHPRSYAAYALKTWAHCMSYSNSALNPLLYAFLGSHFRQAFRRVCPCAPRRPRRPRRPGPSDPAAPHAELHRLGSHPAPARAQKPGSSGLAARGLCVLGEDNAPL

| Structure (SMILES) | Specific Act. (intracellular Ca ion level-increasing activity, specific activity to Metastin (1-54)) |
| --- | --- |
| CNC(=N)NCCC[C@H](NC(=O)[C@H](CC(C)C)NC(=O)CNC(=O)[C@H](Cc1ccccc1)NC(=O)[C@H](CO)NC(=O)[C@H](CC(N)=O)NC(=O)[C@H](Cc1c[nH]c2ccccc12)NC(=O)[C@H](N)CC(N)=O)C(=O)N[C@@H](Cc1ccccc1)C(N)=O [Compound No. 216] (H-[dN]WNSFGL[Arg(Me)]F-NH2) | 1 |
| CCNC(=N)NCCC[C@H](NC(=O)[C@H](CC(C)C)NC(=O)CNC(=O)[C@H](Cc1ccccc1)NC(=O)[C@H](CO)NC(=O)[C@H](CC(N)=O)NC(=O)[C@H](Cc1c[nH]c2ccccc12)NC(=O)[C@H](CC(N)=O)NC(=O)[C@@H](N)Cc1ccc(O)cc1)C(=O)N[C@@H](Cc1ccccc1)C(N)=O [Compound No. 220] | 5 |
| CNC(=N)NCCC[C@H](NC(=O)[C@H](CC(C)C)NC(=O)CNC(=O)[C@H](Cc1ccccc1)NC(=O)[C@H](CO)NC(=O)[C@H](CC(N)=O)NC(=O)[C@@H](Cc1c[nH]c2ccccc12)NC(=O)[C@H](N)Cc1ccc(O)cc1)C(=O)N[C@@H](Cc1ccccc1)C(N)=O [Compound No. 224, D-Tyr-D-Trp-Asn-Ser-Phe-Gly-Leu-Arg(Me)-Phe-NH2] (H-[dY][dW]NSFGL[Arg(Me)]F-NH2) | 2 |
| CNC(=N)NCCC[C@H](NC(=O)[C@H](CC(C)C)NC(=O)CNC(=O)[C@H](Cc1ccccc1)NC(=O)[C@H](CO)NC(=O)[C@H](CC(N)=O)NC(=O)[C@@H](Cc1c[nH]c2ccccc12)NC(=O)[C@H](N)CC(N)=O)C(=O)N[C@@H](Cc1ccccc1)C(N)=O [Compound No. 225, D-Asn-D-Trp-Asn-Ser-Phe-Gly-Leu-Arg(Me)-Phe-NH2] (H-[dN][dW]NSFGL[Arg(Me)]F-NH2) | 1 |
| CNC(=N)NCCC[C@H](NC(=O)[C@H](CC(C)C)NC(=O)CNC(=O)[C@H](Cc1ccccc1)NC(=O)[C@H](CO)NC(=O)[C@H](CC(N)=O)NC(=O)[C@H](CO)NC(=O)[C@H](N)Cc1ccc(O)cc1)C(=O)N[C@@H](Cc1ccccc1)C(N)=O [Compound No. 226] (H-[dY]SNSFGL[Arg(Me)]F-NH2) | 1 |
| CNC(=N)NCCC[C@H](NC(=O)[C@H](CC(C)C)NC(=O)CNC(=O)[C@H](Cc1ccccc1)NC(=O)[C@H](CO)NC(=O)[C@H](CC(N)=O)NC(=O)[C@@H](NC(=O)[C@H](N)Cc1ccc(O)cc1)[C@@H](C)O)C(=O)N[C@@H](Cc1ccccc1)C(N)=O [Compound No. 227] (H-[dY]TNSFGL[Arg(Me)]F-NH2) | 1 |
| CC[C@H](C)[C@H](NC(=O)[C@H](N)Cc1ccc(O)cc1)C(=O)N[C@@H](CC(N)=O)C(=O)N[C@@H](CO)C(=O)N[C@@H](Cc1ccccc1)C(=O)NCC(=O)N[C@@H](CC(C)C)C(=O)N[C@@H](CCCNC(=N)NC)C(=O)N[C@@H](Cc1ccccc1)C(N)=O [Compound No. 228] (H-[dY]INSFGL[Arg(Me)]F-NH2) | 5 |
| CNC(=N)NCCC[C@H](NC(=O)[C@H](CC(C)C)NC(=O)CNC(=O)[C@H](Cc1ccccc1)NC(=O)[C@H](CO)NC(=O)[C@H](CC(N)=O)NC(=O)[C@@H](NC(=O)[C@H](CC(N)=O)NC(=O)[C@H](N)Cc1ccc(O)cc1)C(C)C)C(=O)N[C@@H](Cc1ccccc1)C(N)=O [Compound No. 229] (H-[dY]NVNSFGL[Arg(Me)]F-NH2) | 1 |
| CNC(=N)NCCC[C@H](NC(=O)[C@H](CC(C)C)NC(=O)CNC(=O)[C@H](Cc1ccccc1)NC(=O)[C@H](CO)NC(=O)[C@H](CC(N)=O)NC(=O)[C@H](Cc1c[nH]c2ccccc12)NC(=O)[C@@H](CC(N)=O)NC(=O)[C@H](N)Cc1ccc(O)cc1)C(=O)N[C@@H](Cc1ccccc1)C(N)=O [Compound No. 230] | 10 |
| CNC(=N)NCCC[C@H](NC(=O)[C@H](CC(C)C)NC(=O)CNC(=O)[C@H](Cc1ccccc1)NC(=O)[C@H](CO)NC(=O)[C@H](CC(N)=O)NC(=O)[C@@H](Cc1c[nH]c2ccccc12)NC(=O)[C@@H](CC(N)=O)NC(=O)[C@H](N)Cc1ccc(O)cc1)C(=O)N[C@@H](Cc1ccccc1)C(N)=O [Compound No. 231, D-Tyr-D-Asn-D-Trp-Asn-Ser-Phe-Gly-Leu-Arg(Me)-Phe-NH2] | 1 |
| CC[C@H](C)[C@H](NC(=O)[C@H](CC(N)=O)NC(=O)[C@H](N)Cc1ccc(O)cc1)C(=O)N[C@@H](CC(N)=O)C(=O)N[C@@H](CO)C(=O)N[C@@H](Cc1ccccc1)C(=O)NNC(=O)N[C@@H](CC(C)C)C(=O)N[C@@H](CCCNC(=N)NC)C(=O)N[C@@H](Cc1ccccc1)C(N)=O [Compound No. 233, D-Tyr-Asn-Ile-Asn-Ser-Phe-AzaGly-Leu-Arg(Me)-Phe-NH2] (H-[dY]NINSF[azaGly]L[Arg(Me)]F-NH2) | 1 |
| CNC(=N)NCCC[C@H](NC(=O)[C@H](CC(C)C)NC(=O)NNC(=O)[C@H](Cc1ccccc1)NC(=O)[C@H](CO)NC(=O)[C@H](CC(N)=O)NC(=O)[C@@H](NC(=O)[C@H](CC(N)=O)NC(=O)[C@H](N)Cc1ccc(O)cc1)C(C)C)C(=O)N[C@@H](Cc1ccccc1)C(N)=O [Compound No. 234, D-Tyr-Asn-Val-Asn-Ser-Phe-AzaGly-Leu-Arg(Me)-Phe-NH2] (H-[dY]NVNSF[azaGly]L[Arg(Me)]F-NH2) | 1 |
| CNC(=N)NCCC[C@H](NC(=O)[C@H](CC(C)C)NC(=O)NNC(=O)[C@H](Cc1ccccc1)NC(=O)[C@H](CO)NC(=O)[C@H](CC(N)=O)NC(=O)[C@H](C)NC(=O)[C@H](CC(N)=O)NC(=O)[C@H](N)Cc1ccc(O)cc1)C(=O)N[C@@H](Cc1ccccc1)C(N)=O [Compound No. 235, D-Tyr-Asn-Ala-Asn-Ser-Phe-AzaGly-Leu-Arg(Me)-Phe-NH2] (H-[dY]NANSF[azaGly]L[Arg(Me)]F-NH2) | 1 |
| CNC(=N)NCCC[C@H](NC(=O)[C@H](CC(C)C)NC(=O)NNC(=O)[C@H](Cc1ccccc1)NC(=O)[C@H](CO)NC(=O)[C@H](CC(N)=O)NC(=O)[C@@H](Cc1c[nH]c2ccccc12)NC(=O)[C@H](CC(N)=O)NC(=O)[C@H](N)Cc1ccc(O)cc1)C(=O)N[C@@H](Cc1ccccc1)C(N)=O [Compound No. 236, D-Tyr-Asn-D-Trp-Asn-Ser-Phe-AzaGly-Leu-Arg(Me)-Phe-NH2] | 2 |
| CNC(=N)NCCC[C@H](NC(=O)[C@H](CC(C)C)NC(=O)NNC(=O)[C@H](Cc1ccccc1)NC(=O)[C@H](CO)NC(=O)[C@H](CC(N)=O)NC(=O)[C@H](Cc1c[nH]c2ccccc12)NC(=O)[C@@H](CC(N)=O)NC(=O)[C@H](N)Cc1ccc(O)cc1)C(=O)N[C@@H](Cc1ccccc1)C(N)=O [Compound No. 237, D-Tyr-D-Asn-Trp-Asn-Ser-Phe-AzaGly-Leu-Arg(Me)-Phe-NH2] | 3 |
| CNC(=N)NCCC[C@H](NC(=O)[C@H](CC(C)C)NC(=O)NNC(=O)[C@H](Cc1ccccc1)NC(=O)[C@H](CO)NC(=O)[C@H](CC(N)=O)NC(=O)[C@@H](Cc1c[nH]c2ccccc12)NC(=O)[C@@H](CC(N)=O)NC(=O)[C@H](N)Cc1ccc(O)cc1)C(=O)N[C@@H](Cc1ccccc1)C(N)=O [Compound No. 238, D-Tyr-D-Asn-D-Trp-Asn-Ser-Phe-AzaGly-Leu-Arg(Me)-Phe-NH2] | 1 |
| CNC(=N)NCCC[C@H](NC(=O)[C@H](CC(C)C)NC(=O)NNC(=O)[C@H](Cc1ccccc1)NC(=O)[C@H](CO)NC(=O)[C@H](CC(N)=O)NC(=O)[C@H](Cc1ccccc1)NC(=O)[C@H](CC(N)=O)NC(=O)[C@H](N)Cc1ccc(O)cc1)C(=O)N[C@@H](Cc1ccccc1)C(N)=O [Compound No. 244, D-Tyr-Asn-Phe-Asn-Ser-Phe-AzaGly-Leu-Arg(Me)-Phe-NH2] (H-[dY]NFNSF[azaGly]L[Arg(Me)]F-NH2) | 1 |
| CNC(=N)NCCC[C@H](NC(=O)[C@H](CC(C)C)NC(=O)NNC(=O)[C@H](Cc1ccccc1)NC(=O)[C@H](CO)NC(=O)[C@H](CC(N)=O)NC(=O)[C@H](Cc1cccc2ccccc12)NC(=O)[C@H](CC(N)=O)NC(=O)[C@H](N)Cc1ccc(O)cc1)C(=O)N[C@@H](Cc1ccccc1)C(N)=O [Compound No. 245, D-Tyr-Asn-Nal(1)-Asn-Ser-Phe-AzaGly-Leu-Arg(Me)-Phe-NH2] (H-[dY]N[1Nal]NSF[azaGly]L[Arg(Me)]F-NH2) | 1 |
| CNC(=N)NCCC[C@H](NC(=O)[C@H](CC(C)C)NC(=O)NNC(=O)[C@H](Cc1ccccc1)NC(=O)[C@H](CO)NC(=O)[C@H](CC(N)=O)NC(=O)[C@H](Cc1ccc2ccccc2c1)NC(=O)[C@H](CC(N)=O)NC(=O)[C@H](N)Cc1ccc(O)cc1)C(=O)N[C@@H](Cc1ccccc1)C(N)=O [Compound No. 246, D-Tyr-Asn-Nal(2)-Asn-Ser-Phe-AzaGly-Leu-Arg(Me)-Phe-NH2] (H-[dY]N[2Nal]NSF[azaGly]L[Arg(Me)]F-NH2) | 2 |
| CNC(=N)NCCC[C@H](NC(=O)[C@H](CC(C)C)NC(=O)NNC(=O)[C@H](Cc1ccccc1)NC(=O)[C@H](CO)NC(=O)[C@H](CC(N)=O)NC(=O)[C@H](Cc1ccccc1Cl)NC(=O)[C@H](CC(N)=O)NC(=O)[C@H](N)Cc1ccc(O)cc1)C(=O)N[C@@H](Cc1ccccc1)C(N)=O [Compound No. 247, D-Tyr-Asn-Phe(2Cl)-Asn-Ser-Phe-AzaGly-Leu-Arg(Me)-Phe-NH2] (H-[dY]N[Phe(2-Cl)]NSF[azaGly]L[Arg(Me)]F-NH2) | 1 |
| CNC(=N)NCCC[C@H](NC(=O)[C@H](CC(C)C)NC(=O)NNC(=O)[C@H](Cc1ccccc1)NC(=O)[C@H](CO)NC(=O)[C@H](CC(N)=O)NC(=O)[C@H](Cc1cccc(Cl)c1)NC(=O)[C@H](CC(N)=O)NC(=O)[C@H](N)Cc1ccc(O)cc1)C(=O)N[C@@H](Cc1ccccc1)C(N)=O [Compound No. 248, D-Tyr-Asn-Phe(3Cl)-Asn-Ser-Phe-AzaGly-Leu-Arg(Me)-Phe-NH2] (H-[dY]N[Phe(3-Cl)]NSF[azaGly]L[Arg(Me)]F-NH2) | 2 |
